Legend:
[1] = MIC against ESKAPE pathogens, aerobic; type: cell-based; conditions: aerobic conditions, single concentration screen, n = 3; read-out: MIC ESKAPE bacteria
Method: All compounds were tested for activity against a set of anaerobic C. difficile bacteria (630 ATCC BAA-1382, NAP1/027 M7404, NAP1/027 ATCC BAA-1803, VPI10463 ATCC 43255, CD26A54_S and CD26A54_R) and representative ESKAPE pathogens S. aureus (MRSA ATCC 43300), E. coli (ATCC 25922), K. pneumoniae (ATCC 700603), A. baumannii (ATCC 19606) and P. aeruginosa (ATCC 27853) using a standard broth microdilution assay. Selected compounds were tested for activity against H. pylori strains (26695, and clinical isolates MtzS 13/25, MtzR 98/285 and MtzR 13/61) using agar plate dilution, and for antimicrobial activity against twelve Gram-positive bacterial strains: Enterococcus faecalis (VanA clinical isolate), Enterococcus faecium (MDR VanA ATCC 51559), Streptococcus pneumoniae (MDR ATCC 700677), S. aureus (MRSA ATCC 43300, MRSA clinical isolate, MRSA/DRSA clinical isolate, GISA NARSA NRS 1, GISA NARSA NRS 17, VRSA NARSA VRS1, VRSA NARSA VRS4 and VRSA NARSA VRS10) using broth microdilution. C. difficile strains were grown at 37 °C in a COY anaerobic chamber (5% H2, 10% CO2, 85% N2). H. pylori strains were grown at 37 °C under a microaerobic atmosphere (5% O2, 10% CO2). All facultative anaerobic bacteria were grown at 37 °C with normal atmospheric oxygen levels. […] Positive growth control of bacteria and DMSO as well as a negative control of only media were included for every plate. Full assay details are provided in the supplementary information.
MICs were determined by a two-fold serial broth micro dilution according to the recommendation of CLSI standards with an inoculum of 5 × 10^5 CFU/mL^4 The compounds along with standard antibiotics were serially diluted twofold across the wells of 96-well non-binding surface plates (NBS, Corning). […] Gram-positive and Gram-negative bacteria were cultured in Mueller Hinton broth (MHB) (Bacto laboratories, Cat. no. 211443) at 37 °C overnight. A sample of each culture was then diluted 40-fold in fresh MHB broth and incubated at 37 °C for 2-3 h. The resultant mid-log phase cultures were diluted to the final concentration of 5 × 10^5 CFU/mL, then 50 μL was added to each well of the compound containing 96-well plates. All the plates were covered and incubated at 37 °C for 24 h.

[2] = tested on: E. histolytica HM1:IMSS trophozoites; test: ATP-bioluminescence growth and survival assay, E. histolytica; type: cell-based, Entamoeba histolytica; conditions: MtzS, 48 h, anaerobic, n = 3
Method: Compounds were tested for antiparasitic activity against E. histolytica (HM1:1MSS strain) and G. lamblia (WB, BRIS/87/HEPU/713 (713), BRIS/83/HEPU/106 (106) and the metronidazole resistant syngeneic line 713-M3 [[15,16]]) using an ATP-bioluminescence based screen for cell growth and survival [[17,18]]. Assay plates were inoculated with trophozoites (5 × 10^3 parasites/well) and incubated in the GasPak™ EZ Anaerobe Gas Generating Pouch Systems (VWR, West Chester, PA) to maintain anaerobic conditions throughout the incubation period. The assays were performed in triplicate using the CellTiter-Glo Luminescent Cell Viability Assay. Metronidazole was used as a positive control.
Trophozoites of E. histolytica strain HM1:IMSS and G. lamblia strains WB, BRIS/87/HEPU/713 (713),^10 BRIS/83/HEPU/106 (106)^11 and the metronidazole resistant syngenic line 713-M3^10,11 were axenically maintained in TYI-S-33 medium supplemented with penicillin (100 U/ml), streptomycin (100 µg/ml).^12 E. histolytica and G. lamblia trophozoites were counted using a particle counter (Beckman Coulter, Fullerton, CA). All experiments were performed using trophozoites harvested during the logarithmic phase of growth.
A three-fold serial dilution was then performed yielding a concentration range 0.25-625 µM. From this dilution plate, 4 µL were transferred into the 96-well screen plates followed by addition of 96 µL of trophozoites (5,000 parasites) to yield a final 8-point concentration range spanning 0.01- 25 µM. Assay plates were incubated for 48 h at 37 °C in the GasPak^TM EZ Anaerobe Gas Generating Pouch Systems (VWR, West Chester, PA) to maintain anaerobic condition throughout the incubation period. The assays were performed in triplicate using the CellTiter-Glo Luminescent Cell Viability Assay.^13

SMILES	MIC [1] [µg/mL]	EC50 ([2]; Entamoeba histolytica) [µM]	EC50 [2] [µM]
Cc1ccc(-c2cn(CCn3c([N+](=O)[O-])cnc3C)nn2)cc1 [Compound 4e, 1-(2-(2-methyl-5-nitro-1H-imidazol-1-yl)ethyl)-4-(p-tolyl)-1H-1,2,3-triazole]	> 32	3.7	–
Cc1ncc([N+](=O)[O-])n1CCn1cc(Cn2cccn2)nn1 [Compound 4g, 1-(2-(2-methyl-5-nitro-1H-imidazol-1-yl)ethyl)-4-((1H-pyrazol-1-yl)methyl)-1H-1,2,3-triazole]	> 32	> 25	–
Cc1ncc([N+](=O)[O-])n1CCn1cc(-c2ncccn2)nn1 [Compound 4j, 1-(2-(2-methyl-5-nitro-1H-imidazol-1-yl)ethyl)-4-(2-pyrimidinyl)-1H-1,2,3-triazole]	> 32	> 25	–
Cc1ncc([N+](=O)[O-])n1CCn1cc(-c2ccccn2)nn1 [Compound 4h, 1-(2-(2-methyl-5-nitro-1H-imidazol-1-yl)ethyl)-4-(2-pyridinyl)-1H-1,2,3-triazole.xTFA]	> 32	4.6	–
Cc1ncc([N+](=O)[O-])n1CCn1cc(C(O)c2ccccc2)nn1 (stereo not shown) [Compound 4l, 1-(2-(2-methyl-5-nitro-1H-imidazol-1-yl)ethyl)-4-(1-phenyl-1-hydroxylmethyl)-1H-1,2,3-triazole]	> 32	> 25	–
COc1ccc(-c2cn(CCn3c([N+](=O)[O-])cnc3C)nn2)cc1 [Compound 4b, 1-(2-(2-methyl-5-nitro-1H-imidazol-1-yl)ethyl)-4-(4-methoxyphenyl)-1H-1,2,3-triazole]	> 32	4.8	–
COC(=O)c1cn(CCn2c([N+](=O)[O-])cnc2C)nn1 [Compound 4f, 1-(2-(2-methyl-5-nitro-1H-imidazol-1-yl)ethyl)-4-(methoxycarbonyl)-1H-1,2,3-triazole]	> 32	> 25	–
Cc1ncc([N+](=O)[O-])n1CCn1cc(-c2ccccc2)nn1 [Compound 4a, 1-(2-(2-methyl-5-nitro-1H-imidazol-1-yl)ethyl)-4-phenyl-1H-1,2,3-triazole]	> 32	4.2	–
Cc1ncc([N+](=O)[O-])n1CCn1cc(-c2cncnc2)nn1 [Compound 4i, 1-(2-(2-methyl-5-nitro-1H-imidazol-1-yl)ethyl)-4-(5-pyrimidinyl)-1H-1,2,3-triazole]	> 32	> 25	–
Cc1ncc([N+](=O)[O-])n1CCn1cc(-c2ccc(Cl)cc2)nn1 [Compound 4c, 1-(2-(2-methyl-5-nitro-1H-imidazol-1-yl)ethyl)-4-(4-chlorophenyl)-1H-1,2,3-triazole]	> 32	3.6	–
Cc1ncc([N+](=O)[O-])n1CCn1cc(CO)nn1 [Compound 4q, 1-(2-(2-methyl-5-nitro-1H-imidazol-1-yl)ethyl)-4-(hydroxymethyl)-1H-1,2,3-triazole]	> 32	> 25	–
Cc1ncc([N+](=O)[O-])n1CCn1cc(CCC(=O)O)nn1 [Compound 4r, sodium 1-(2-(2-methyl-5-nitro-1H-imidazol-1-yl)ethyl)-4-(carboxyethyl)-1H-1,2,3-triazole]	> 32	> 25	–
Cc1ncc([N+](=O)[O-])n1CCn1cc(CN(C)Cc2ccccc2)nn1 [Compound 4m, 1-(2-(2-methyl-5-nitro-1H-imidazol-1-yl)ethyl)-4-(N-benzyl, N-methylaminomethyl)-1H-1,2,3-triazole]	> 32	4.6	–
Cc1ncc([N+](=O)[O-])n1CCn1cc(CCO)nn1 [Compound 4p, 1-(2-(2-methyl-5-nitro-1H-imidazol-1-yl)ethyl)-4-(2-hydroxyethyl)-1H-1,2,3-triazole]	> 32	> 25	–
Cc1ncc([N+](=O)[O-])n1CCn1cc(CN)nn1.O=C(O)C(F)(F)F [Compound 4t, 1-(2-(2-methyl-5-nitro-1H-imidazol-1-yl)ethyl)-4-(aminomethyl)-1H-1,2,3-triazole trifluoroacetate salt]	> 32	> 25	–
Cc1ncc([N+](=O)[O-])n1CCn1cc(Cc2ccccc2)nn1 [Compound 4k, 1-(2-(2-methyl-5-nitro-1H-imidazol-1-yl)ethyl)-4-benzyl-1H-1,2,3-triazole]	> 32	1.9	–
Cc1ncc([N+](=O)[O-])n1CCn1cc(-c2ccc(Cl)c(Cl)c2)nn1 [Compound 4d, 1-(2-(2-methyl-5-nitro-1H-imidazol-1-yl)ethyl)-4-(3,4-dichlorophenyl)-1H-1,2,3-triazole]	> 32	5.2	–
Cc1ncc([N+](=O)[O-])n1CCO [Compound 1, metronidazole]	> 32	5	–
Cc1ncc([N+](=O)[O-])n1CCn1cc(-c2ccsc2)nn1 [Compound 4n, 1-(2-(2-methyl-5-nitro-1H-imidazol-1-yl)ethyl)-4-(thiophen-3-yl)-1H-1,2,3-triazole]	> 32	3.8	–
Cc1ncc([N+](=O)[O-])n1CCn1cc(C(=O)O)nn1 [Compound 4s, 1-(2-(2-methyl-5-nitro-1H-imidazol-1-yl)ethyl)-4-(carboxy)-1H-1,2,3-triazole]	> 32	> 25	–
Cc1ncc([N+](=O)[O-])n1CCN=[N+]=[N-] [Compound 3, 1-(2-azidoethyl)-2-methyl-5-nitro-1H-imidazole]	–	–	2.1
Cc1ncc([N+](=O)[O-])n1CCn1cc(CN2CCS(=O)(=O)CC2)nn1 [Compound 4o, 1-(2-(2-methyl-5-nitro-1H-imidazol-1-yl)ethyl)-4-((1,1-dioxothiomorpholin-4-yl)methyl)-1H-1,2,3-triazole]	> 32	> 25	–

— article PMC4550478, “Metronidazole-triazole conjugates: Activity against Clostridium difficile and parasites” (European Journal of Medicinal Chemistry, 2015)
